Test results as given in PMC9950073, “Alleviation of arthritis through prevention of neutrophil extracellular traps by an orally available inhibitor of protein arginine deiminase 4” (Scientific Reports, 2023).
Each block holds one molecule with its values, some of them ahead of it.

Tested on: collagen induced arthritis
Test: Collagen induced arthritis model in DBA/1 mice
Assay type: in vivo
Details: Dexamethasone dose not given; for clinical score: JBI-589 50 mg/kg po BID day 0-45; for clinical score / bone erosion (histopathology) / joint inflammation (histopathology) / pannus formation (histopathology): Etanercept 25 mg/kg IP day 31–45

- spleen weight (day 45, JBI-589 50 mg/kg po BID): stronger reduction
Molecule: C[C@@H]1C[C@H]2[C@@H]3CCC4=CC(=O)C=C[C@]4(C)[C@@]3(F)[C@@H](O)C[C@]2(C)[C@@]1(O)C(=O)CO [Dexamethasone]
- clinical score: strong inhibition
- bone erosion (histopathology) (JBI-589 50 mg/kg po BID): significantly decreased
- joint inflammation (histopathology) (JBI-589 50 mg/kg po BID): significantly decreased
- pannus formation (histopathology) (JBI-589 50 mg/kg po BID): significantly decreased
- body weight (end of study, JBI-589 50 mg/kg po BID): stronger reduction

Molecule: Etanercept
- clinical score: comparable inhibition
- bone erosion (histopathology) (JBI-589 50 mg/kg po BID): no appreciable effect
- joint inflammation (histopathology) (JBI-589 50 mg/kg po BID): no appreciable effect
- pannus formation (histopathology) (JBI-589 50 mg/kg po BID): no appreciable effect
